The source of these data is patent US20260209152A1, “Substituted Hydroxystilbene Compounds and Derivatives, Synthesis and Uses Thereof” (Kynan Duke IP, LLC, priority 2019, published 2026).

One series relates to Pancreatic MIA PaCa-2. In words: CellTiter Glo cell viability assay. Conditions: Homo sapiens, read-out: IC50. The series is classed as cell-based, human. How it is done: (§1) 1.7*10^3 cells/well were seeded in quadruplicates in 96-well plate after plating. Drugs were added at 5 μM and 2-fold dilutions over 18 concentrations (0.000038146-5 […] range) to generate a dose-response curve. Cell growth was assessed on day 1, 3 and 5 after drug treatments using the CellTiter Glo Luminescence Cell Viability Assay (Promega) according to manufacturer's protocol. Thermo Scientific Varioskan LUX Multimode Microplate instrument was used for plate reading. Data are expressed as mean luminescence (arbitrary units) ±S.D.
(§2) Cell Viability Assays were employed to determine the concentration of Compound 1 (KYN-001) and analogues where the response is reduced by half. For each treatment of cancer cells, 1, 2, 5, 10 and 20 μM solutions of compounds were applied. GraphPad Prism 7 software was used to fit dose response curves. Relative Luminescence Units were plotted against the log values of the doses used and the nonlinear regression model was used for data analysis.
(§3) The protocol for cell proliferation was optimized for Compound 8 (KYN-119) to enable a more accurate assessment of its low IC50 value. In this protocol, 18 dosages (2 fold dilutions ranging from 0.000038146 to 5 μM) were applied to cells seeded in 96-well plates, and Luminescence was measured after 1, 3 and 5 days upon treatments.
Day 3 upon treatment of MIA PaCa_2 pancreatic cancer cells, 24 h after plating (11 dilutions), as assessed by CellTiter Glow Assay.
(In ATP-based viability assays light output follows the ATP content of the culture.)

The test system of another series is Brain U-87 MG HTB-14. In words: CellTiter Glo cell viability assay. The settings on record: Homo sapiens, Table 5B: 11 dilutions 3-0.00001 μM, Exp L-N. Type of series: cell-based. The procedure: (§4) 1.7*10^3 cells/well were seeded in quadruplicates in 96-well plate after plating. […] Cell growth was assessed on day 1, 3 and 5 after drug treatments using the CellTiter Glo Luminescence Cell Viability Assay (Promega) according to manufacturer's protocol. Thermo Scientific Varioskan LUX Multimode Microplate instrument was used for plate reading. Data are expressed as mean luminescence (arbitrary units) ±S.D.
(§5) Cell Viability Assays were employed to determine the concentration of Compound 1 (KYN-001) and analogues where the response is reduced by half. […] GraphPad Prism 7 software was used to fit dose response curves. Relative Luminescence Units were plotted against the log values of the doses used and the nonlinear regression model was used for data analysis.

Series [1] has as its system Cancer cells including pancreatic, bladder, kidney, colon, breast, lung, liver and osteosarcomas. In words: CellTiter Glo cell viability assay, panel of cancer cell lines. Type of series: cell-based, human. Conditions: SAR discussion based on IC50 values in Tables 1 to 5; compared with 1 [KYN-001]. The procedure:
Compounds 1 to 15 were evaluated and their effect on cancer growth examined in cell viability assays on multiple cancer types (Tables 1 to 5). Cancer cells including pancreatic, bladder, kidney, colon, breast, lung, liver and osteosarcomas obtained from ATCC (American Type Culture Collection) were authenticated before use by Short Tandem Repeat genomic analysis (Reid Y, Storts D, Riss T and Minor L. Authentication of Human Cell Lines by STR DNA Profiling Analysis. 2013 May 1. In: Markossian S, Sittampalam G S, Grossman A, et al., editors. Assay Guidance Manual. Bethesda (MD): Eli Lilly & Company and the National Center for Advancing Translational Sciences; 2004.). Experimental protocol for each cancer cell line was verified and optimized according to literature reports before use (Tables 1 to 3).
as §1, §2, §3

A further series relates to GBM patient sample BNB04. In words: Ex vivo GBM 3D spheroid drug response (CellTiter-Glo 3D). Type of series: cell-based, human. Set-up: key to TMZ Response: NR: Non-responder; MR: Moderate responder; Responder. Conditions: 3D spheroids. An excerpt: (§6) This project involves an ex vivo drug response screen for 3 ROKiT Pharma test agents and Temozolomide in 3 previously dissociated and cryopreserved GBM samples.
(§7) • 2.1 Three previously processed GBM patient samples were chosen to be used in this study.

For the next series, the system named is GBM patient sample BNA99. The description is as above. The series is classed as cell-based, human. Set-up: key to TMZ Response: NR: Non-responder; MR: Moderate responder; Responder. The settings on record: 3D spheroids.
Description: as §6, §7

The subject of the next series is GBM patient sample BNB18. The description is as above. Type of series: cell-based, human. On the set-up: key to TMZ Response: NR: Non-responder; MR: Moderate responder; Responder. Conditions: 3D spheroids.
Description: as §6, §7

Another series deals with Bladder RT-112. Briefly: CellTiter Glo cell viability assay. Conditions: Homo sapiens, RT-112, 72 h, read-out: IC50. Type of series: cell-based, human. How it is done: as §1, §2, §3
The test system of a further series is Kidney ACHN. In words: CellTiter Glo cell viability assay. Type of series: cell-based, human. Conditions: Homo sapiens, ACHN, 72 h; Table 4: 3 Days of treatment; 18 2-fold dilutions 5-0.00003 μM; Average (1, 8) or single Exp A-D; read-out: IC50. The procedure:
as §1, §2, §3

Another series concerns Pancreatic CAPAN-1. Briefly: CellTiter Glo cell viability assay. The settings on record: Homo sapiens, CAPAN-1, 72 h; Table 4: 3 Days of treatment; 18 2-fold dilutions 5-0.00003 μM; Average (1, 8) or single Exp A-D; read-out: IC50. Type of series: cell-based, human. The procedure:
as §1, §2, §3

A further series relates to Kidney A-498. Briefly: CellTiter Glo cell viability assay. The series is classed as cell-based, human. The settings on record: read-out: IC50. The procedure:
as §4, §5
The protocol for cell proliferation was optimized for Compound 8 (KYN-119) to enable a more accurate assessment of its low IC50 value. […]

Series [2] can be described thus: Stability in solution (LCMS observation). The series is classed as physicochemical. Conditions: standing in methanol for 16 hours; acetonitrile in water chromatography. The procedure: NOTE: In a trial run, compound 15-9 (50 mg) was converted to compound 15 using conditions as described above.
For another series, the system named is Kidney CRL-1611. In words: CellTiter Glo cell viability assay. Conditions: Homo sapiens, 72 h; Day 3 upon drug treatment; 10 dosages 0.0001-20 μM; read-out: IC50. The series is classed as cell-based. The procedure: as §1, §2, §3
A further series deals with Colon SW_480. Briefly: CellTiter Glo cell viability assay. The series is classed as cell-based, human. The settings on record: Homo sapiens, SW480, 72 h; Day 3 upon drug treatment; 10 dosages 0.0001-20 μM; read-out: IC50.
Series [3] has as its system IL-17A secretion from human PBMC stimulated with antiCD3/antiCD28-coated beads. Conditions: assay description, cited from earlier work.
The next series deals with Breast MDA-MB-231. Briefly: CellTiter Glo cell viability assay. Conditions: Homo sapiens, MDA-MB-231, 72 h; Day 3 upon drug treatment; 10 dosages 0.0001-20 μM; read-out: IC50. The series is classed as cell-based, human. The procedure:
as §1, §2, §3

Setting [4] is: MIA PaCa-2, Table 5B: MIA PaCa-2 CRL-1420, 11 dilutions 3-0.00001 μM, Exp L-N.
[5] abbreviates: Homo sapiens, A498, Table 5A: 11 dilutions 3-0.00001 μM, single experiments Exp E-K.
Where [6] appears, read: MIA PaCa-2, 72 h, Day 3 upon drug treatment, 10 dosages 0.0001-20 μM.
[7] abbreviates: Day 3 upon drug treatment, 10 dosages 0.0001-20 μM.

Read-outs that look alike come from different tables or passages of the source.

A word on the IC50: it is the concentration that inhibits the measured activity by half. Take `COc1cc(/C=C/c2cc(O)cc(NC(C)=O)c2CC=C(C)C)ccc1O` [Compound 49, (E)-N-(5-hydroxy-3-(4-hydroxy-3-methoxystyryl)-2-(3-methylbut-2-en-1-yl)phenyl)acetamide]: the concentration for half-maximal inhibition (IC50) was 531 nM with Pancreatic MIA PaCa-2 (setting [4]) and 1400 nM with Brain U-87 MG HTB-14. Moreover, the “Cancer cell viability inhibition, statement in words” value (from here on “Cancer cell viability inhibition”) in [1] was “anticancer activities comparable to 1”.

For the compound `CCOc1cc(O)cc(/C=C/c2ccc3[nH]c(=O)n(C)c3c2)c1CC=C(C)C` [Compound 51, (E)-6-(3-Ethoxy-5-hydroxy-2-(3-methylbut-2-en-1-yl)styryl)-1-methyl-1,3-dihydro-2H-benzo[d]imidazol-2-one], the IC50 in the series on Brain U-87 MG HTB-14 was about 3000 nM. Besides, the “Cancer cell viability inhibition” value in [1] was “no significant activity”.

For the compound `CCOc1cc(O)cc(/C=C/c2ccc(N(O)C(C)=O)c(OC)c2)c1CC=C(C)C` [Compound 39, (E)-N-(4-(3-ethoxy-5-hydroxy-2-(3-methylbut-2-en-1-yl)styryl)-2-methoxyphenyl)-N-hydroxyacetamide], the IC50 was over 3000 nM with Pancreatic MIA PaCa-2 (setting [4]) and about 3000 nM in the series on Brain U-87 MG HTB-14. In addition, the “Cancer cell viability inhibition” value in series [1] is “almost complete loss of anticancer activity”.

On to `Cn1nnc2c(C(N)=O)ncn2c1=O` [TMZ, Temozolomide, reference compound], for which the “TMZ Response” value with GBM patient sample BNB04 is “MR”; in the series on GBM patient sample BNA99, “NR”; in the series with GBM patient sample BNB18, “R”.

As to `COc1cc(C=Cc2cc(O)cc(OC(C)C)c2CC=C(C)C)ccc1O` [Compound 10, 3-(4-Hydroxy-3-methoxystyryl)-5-isopropoxy-4-(3-methylbut-2-en-1-yl)phenol], the IC50 is 25.6 nM in the series with Bladder RT-112 (Table 4: 3 Days of treatment, 18 2-fold dilutions 5-0.00003 μM, Average (1, 8) or single Exp A-D); 40.9 nM with Kidney ACHN; 2240 nM with Pancreatic CAPAN-1; 37.1 nM with Kidney A-498 (Homo sapiens, A498, 72 h, Table 4: 3 Days of treatment, 18 2-fold dilutions 5-0.00003 μM, Average (1, 8) or single Exp A-D); 100 to 1000 nM in the series with Kidney A-498 (setting [5]); 126 nM in the series on Kidney A-498 (Table 5A: 11 dilutions 3-0.00001 μM, single experiments Exp E-K).

As to `CNc1cc(/C=C/c2cc(O)cc(OC)c2CC=C(C)C)ccc1O` [Compound 15, (E)-3-(4-Hydroxy-3-(methylamino)styryl)-5-methoxy-4-(3-methylbut-2-en-1-yl)phenol], the IC50 in the series with Pancreatic MIA PaCa-2 (MIA PaCa-2, Table 5A: 11 dilutions 3-0.00001 μM, single experiments Exp E-K) is over 3000 nM; with Kidney A-498 (setting [5]) it was over 3000 nM. In series [1], the “Cancer cell viability inhibition” value was “inactive or weakly active”. Also, the Stability in solution entry in series [2] was “might be unstable in solution”.

Regarding `CCc1cc(/C=C/c2cc(O)cc(OC)c2CC=C(C)C)ccc1O` [Compound 13, (E)-3-(3-Ethyl-4-hydroxystyryl)-5-methoxy-4-(3-methylbut-2-en-1-yl)phenol], the IC50 came to 3000 nM with Pancreatic MIA PaCa-2 (setting [6]), 949 nM in the series with Bladder RT-112 (setting [7]), 2120 nM in the series with Kidney CRL-1611 and 26500 nM with Colon SW_480.

By EC50 is commonly meant the concentration that produces a half-maximal response. With `C=CC[C@@H]1/C=C(\C)C[C@H](C)C[C@H](OC)[C@H]2O[C@@](O)(C(=O)C(=O)N3CCCC[C@H]3C(=O)O[C@H](/C(C)=C/[C@@H]3CC[C@@H](O)[C@H](OC)C3)[C@H](C)[C@@H](O)CC1=O)[C@H](C)C[C@@H]2OC` [Tacrolimus], the “Emax (plateau of the fitted curve), IL-17A release (reference compound)” value in series [3] is given as “approximately 90%”. In [3] (read-out: EC50, IL-17A release (reference compound)), the EC50 is about 0.34 nM.

With `COc1cc(O)cc(/C=C/c2ccc(O)c(SC)c2)c1CC=C(C)C` [Compound 14, (E)-3-(4-Hydroxy-3-(methylthio)styryl)-5-methoxy-4-(3-methylbut-2-en-1-yl)phenol], the IC50 in the series with Pancreatic MIA PaCa-2 (setting [6]) was 3470 nM; with Breast MDA-MB-231 it was about 10600 nM; with Bladder RT-112 (setting [7]), 1330 nM; with Kidney CRL-1611, 2960 nM.

In the case of `COc1cc(/C=C/c2cc(O)cc(NC=O)c2CC=C(C)C)ccc1O` [Compound 48, (E)-N-(5-Hydroxy-3-(4-hydroxy-3-methoxystyryl)-2-(3-methylbut-2-en-1-yl)phenyl)formamide], the figures for the half-inhibitory concentration (IC50) in the series with Pancreatic MIA PaCa-2 (setting [4]) and in the series with Brain U-87 MG HTB-14 were 486 nM and 555 nM, respectively. Moreover, the “Cancer cell viability inhibition” value in [1] was “anticancer activities comparable to 1”.
